Experiments:
[1] = system: NFκB in Calu-3 human bronchial epithelial cells; experiment: TNFα-dependent NFκB-Luc reporter repression in Calu-3 cells; format: cell-based
Experimental: Anti-inflammatory activity of each of the oligomers was determined using Calu-3 human bronchial epithelial cells (American Type Culture Collection; ATCC), from repression of the inflammatory transcription factor NFκB. The Calu-3 cells of 0.5×10^6 cells/cm^2 in 12-well plates were cultured for 24 h and then, transfected with 0.6 μg luciferase (Luc)-tagged reporter plasmid construct of NFκB (pNFκB-Luc) for another 24 h using the Effectene reagents (Qiagen) under the protocol optimized in-house. On day 3, the transfected Calu-3 cells were stimulated for 6 h with 30 ng/ml human tumor necrosis factor α (TNF α; BD Biosciences) in the presence of each oligomer at 0-100 μM in culture. Then, the Calu-3 cells were lysed, after which the Luc activities were measured using 20/20n luminometer (Turner BioSystems). The cellular NFκB-Luc activity was expressed in relative light unit/mg protein, normalized by the total protein measured by the BCA assay (Pierce Biotechnology). A fold-induction of such a normalized NFκB-Luc activity relative to the transfection control was derived for treatment group comparison; this accommodated inter-transfection efficiency differences.

[2] = Chemical antioxidant assay (ABTS oxidation by metmyoglobin/hydrogen peroxide); conditions: room temperature, absorbance at 750 nm in first 5 min; read-out: AOC50 (half maximal anti-oxidative concentration)
Experimental: Anti-oxidative activity of the oligomers was determined at room temperature using the chemical antioxidant assay kit (Cayman Chemical Co.) in a 96-well plate format, in accord with the manufacturer's protocol. The kit has been validated in-house with respect to assay precision and accuracy. Oxidative reaction of ABTS (2,2′-azino-di-[3-ethylbenzthiazoline sulphonate]) to its oxidative product, ABTS•+, by metmyoglobin and 84 μM hydrogen peroxide were monitored for 20 min in the presence of each oligomer at 0-100 μM. The absorbance at 750 nm due to ABTS•+ generation was measured using the microplate reader. Initial linear rate of oxidation was assessed with the absorbance produced for the first 5 min. The half maximal anti-oxidative concentration (AOC50) values were derived, assuming the sigmoidal concentration-dependence of the initial oxidation rate in the logistic function equation.

Row | SMILES | repression of NFκB-Luc activity ([1]; by 100 μM) | EC50 [2] [µM] | repression of TNFα-induced NFκB-Luc activity ([1]; 5 μM) [%]
1 | O=C(O)/C=C/c1ccc(O)c(O)c1 [CA, caffeic acid] | no appreciable repression | 16.8 ± 1.6 | 
2 | CCC(=O)O[C@]1(C(=O)SCF)[C@H](C)C[C@H]2[C@@H]3C[C@H](F)C4=CC(=O)C=C[C@]4(C)[C@@]3(F)[C@@H](O)C[C@@]21C [FP, fluticasone propionate] |  |  | 100
